Values joined by “and” are separate entries in the source; they are usually repeats but may differ in a detail not shown here. Identical values can stand only once. Like-named read-outs stand apart in the source and are kept apart here.
Target: T1, human muscarinic acetylcholine M3 receptor (M3-ACh) (Homo sapiens, UniProt P20309)
T1 construct: expressed in transfected cells; host or cells: CHO-K1 (Chinese Hamster Ovary) cell membranes
Assay: biochemical
Assay type: binding

[1] = pIC50 (M3 Binding IC50 classes)

T1 sequence (P20309 whole entry): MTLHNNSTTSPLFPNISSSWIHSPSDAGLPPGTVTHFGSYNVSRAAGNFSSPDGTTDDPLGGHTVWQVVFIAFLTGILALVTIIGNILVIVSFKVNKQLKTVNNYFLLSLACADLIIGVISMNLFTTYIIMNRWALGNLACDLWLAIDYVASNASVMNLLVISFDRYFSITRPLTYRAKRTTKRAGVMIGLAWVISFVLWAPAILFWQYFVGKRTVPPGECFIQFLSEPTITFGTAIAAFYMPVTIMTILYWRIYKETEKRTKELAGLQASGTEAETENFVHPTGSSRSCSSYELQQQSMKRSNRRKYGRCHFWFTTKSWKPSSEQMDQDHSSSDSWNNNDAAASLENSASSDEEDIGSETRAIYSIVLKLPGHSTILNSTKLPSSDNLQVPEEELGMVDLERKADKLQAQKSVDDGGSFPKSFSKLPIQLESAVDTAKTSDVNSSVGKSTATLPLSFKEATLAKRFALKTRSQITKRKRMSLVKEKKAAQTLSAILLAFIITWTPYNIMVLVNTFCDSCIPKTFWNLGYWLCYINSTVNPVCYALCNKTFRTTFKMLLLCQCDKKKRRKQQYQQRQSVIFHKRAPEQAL

Compound | IC50 [1] | other results
CC(C(=O)O[C@H]1C[N+]2(CCCc3ccccc3)CCC1CC2)(c1ccccc1)N1CCCCCC1 (single isomer, unassigned) [Example 94] | < 2 nM | 
CC(C(=O)O[C@H]1C[N+]2(CCc3cccc(F)c3)CCC1CC2)(c1cccs1)N1CCSCC1 (single isomer, unassigned) [Example 51] | < 2 nM | 
Cc1ccc(OCC[N+]23CCC(CC2)[C@@H](OC(=O)C(C)(c2cccs2)N2CCCCC2)C3)c(C)n1 (single isomer, unassigned) [Example 66] | 2 to 10 nM | 
CC(C(=O)O[C@H]1C[N+]2(Cc3cc(-c4ccccc4)no3)CCC1CC2)(c1cccs1)N1CCSCC1 (single isomer, unassigned) [Example 55] | 2 to 10 nM | 
C[C@@](C(=O)O[C@H]1C[N+]2(CC(=O)c3ccc(F)cc3F)CCC1CC2)(c1ccccc1)N1CCCCC1 [Example 5, (3R)-1-[2-(2,4-Difluorophenyl)-2-oxoethyl]-3-{[(2S)-2-phenyl-2-piperidin-1-ylpropanoyl]oxy}-1-azoniabicyclo[2.2.2]octane chloride] | 2 to 10 nM | 
CC1(C)CN(C(C)(C(=O)O[C@H]2C[N+]3(CCCOc4ccccc4)CCC2CC3)c2ccccc2)C1 (single isomer, unassigned) [Example 48] | 2 to 10 nM | 
CN(C(=O)C[N+]12CCC(CC1)[C@@H](OC(=O)C(C)(c1cccs1)N1CCCCC1)C2)c1cccc(F)c1 (single isomer, unassigned) [Example 109] | 2 to 10 nM | 
C[C@@](C(=O)O[C@H]1C[N+]2(CC[C@@H](O)c3ccccc3)CCC1CC2)(c1ccccc1)N1CCCCC1 [Example 39] | < 2 nM | 
CC(C(=O)O[C@H]1C[N+]2(CCCOc3ccccc3)CCC1CC2)(c1ccccc1)N1CCCCCC1 (single isomer, unassigned) [Example 97] | < 2 nM | 
C[C@@](C(=O)O[C@H]1C[N+]2(CC(=O)c3sccc3Cl)CCC1CC2)(c1ccccc1)N1CCCCC1 [Example 4, (3R)-1-[2-(3-Chloro-2-thienyl)-2-oxoethyl]-3-{[(2S)-2-phenyl-2-piperidin-1-ylpropanoyl]oxy}-1-azoniabicyclo[2.2.2]octane bromide] | 2 to 10 nM | 
CC(C(=O)O[C@H]1C[N+]2(CC(=O)Nc3ccon3)CCC1CC2)(c1ccccc1)N1CCCCCC1 (single isomer, unassigned) [Example 90] | < 2 nM | IC50 (pIC50): 0.631 nM
CC(C(=O)O[C@H]1C[N+]2(CCc3cccc(F)c3)CCC1CC2)(c1ccccc1)N1CCCCCC1 (single isomer, unassigned) [Example 92] | < 2 nM | 
CC(C(=O)O[C@H]1C[N+]2(CCc3cccc(Cl)c3)CCC1CC2)(c1ccccc1)N1CCCCCC1 (single isomer, unassigned) [Example 86] | < 2 nM | 
CC(C(=O)O[C@H]1C[N+]2(CCCc3ccccc3)CCC1CC2)(c1ccccc1)N1CCSCC1 (single isomer, unassigned) [Example 104] | < 2 nM | 
CC(C(=O)O[C@H]1C[N+]2(Cc3nc4ccccc4s3)CCC1CC2)(c1cccs1)N1CCCCC1 (single isomer, unassigned) [Example 75] | < 2 nM | 
CC(C(=O)O[C@H]1C[N+]2(CCc3ccccc3)CCC1CC2)(c1ccccc1)N1CCSCC1 (single isomer, unassigned) [Example 103] | < 2 nM | 
Cc1cc(OCCC[N+]23CCC(CC2)[C@@H](OC(=O)C(C)(c2cccs2)N2CCCCC2)C3)cc(C)n1 (single isomer, unassigned) [Example 81] | 2 to 10 nM | 

Compound | IC50 [1] | other results
C[C@@](C(=O)O[C@H]1C[N+]2(CC(=O)c3cccc(Cl)c3)CCC1CC2)(c1ccccc1)N1CCCCC1 [Example 6, (3R)-1-[2-(3-Chlorophenyl)-2-oxoethyl]-3-{[(2S)-2-phenyl-2-piperidin-1-ylpropanoyl]oxy}-1-azoniabicyclo[2.2.2]octane bromide] | < 2 nM | 
C[C@@](C(=O)O[C@H]1C[N+]2(CC(=O)c3cccc(F)c3)CCC1CC2)(c1ccccc1)N1CCCCC1 [Example 7, (3R)-1-[2-(3-Fluorophenyl)-2-oxoethyl]-3-{[(2S)-2-phenyl-2-piperidin-1-ylpropanoyl]oxy}-1-azoniabicyclo[2.2.2]octane bromide] | < 2 nM | 
CC(C(=O)O[C@H]1C[N+]2(CC(=O)Nc3ccc(C(F)(F)F)cn3)CCC1CC2)(c1cccs1)N1CCCCC1 (stereo partly drawn) [Example 84, (3R)-1-(2-Oxo-2-{[5-(rifluoromethyl)pyridin-2-yl]amino}ethyl)-3-{[2-piperidin-1-yl-2-(2-thienyl)propanoyl]oxy}-1-azoniabicyclo[2.2.2]octane bromide] |  | IC50 (read-out: pIC50 (M3 Binding IC50 classes) (converted)): 2 to 10 nM and < 2 nM
Cc1nc(-c2ccc(OCC[N+]34CCC(CC3)[C@@H](OC(=O)[C@](C)(c3ccccc3)N3CCCCC3)C4)cc2)no1 [Example 43, (3R)-1-{2-[4-(5-Methyl-1,2,4-oxadiazol-3-yl)phenoxy]ethyl}-3-{[(2S)-2-phenyl-2-piperidin-1-ylpropanoyl]oxy}-1-azoniabicyclo[2.2.2]octane bromide] | 2 to 10 nM | 
C[C@@](C(=O)O[C@H]1C[N+]2(CC(=O)NCc3ccccc3)CCC1CC2)(c1ccccc1)N1CCCCC1 [Example 16, (3R)-1-[2-(Benzylamino)-2-oxoethyl]-3-{[(2S)-2-phenyl-2-piperidin-1-ylpropanoyl]oxy}-1-azoniabicyclo[2.2.2]octane chloride] | 2 to 10 nM | 
CC(C(=O)O[C@H]1C[N+]2(CC(=O)Nc3ccon3)CCC1CC2)(c1ccccc1)N1CCCCCC1 (single isomer, unassigned) [Example 111] | 2 to 10 nM | 
CC(C(=O)O[C@H]1C[N+]2(Cc3nc(-c4ccccc4)no3)CCC1CC2)(c1cccs1)N1CCCCC1 (some centres unmarked) [Example 83] | < 2 nM | 
CC(C(=O)O[C@H]1C[N+]2(CCc3ccccc3)CCC1CC2)(c1ccccc1)N1CCCCCC1 (single isomer, unassigned) [Example 93] | < 2 nM | 
C[C@@](C(=O)O[C@H]1C[N+]2(CC[C@H](O)c3ccccc3)CCC1CC2)(c1ccccc1)N1CCCCC1 [Example 38] | < 2 nM | 
CC(C(=O)O[C@H]1C[N+]2(CCCOc3ccccc3)CCC1CC2)(c1ccccc1)N1CCSCC1 (single isomer, unassigned) [Example 107] | < 2 nM | 
CC(C(=O)O[C@H]1C[N+]2(CCOCc3ccc(Cl)cc3)CCC1CC2)(c1ccccc1)N1CCSCC1 (single isomer, unassigned) [Example 108] | 2 to 10 nM | 
COc1cccc(C(=O)C[N+]23CCC(CC2)[C@@H](OC(=O)[C@](C)(c2ccccc2)N2CCCCC2)C3)c1 [Example 8, (3R)-1-[2-(3-Methoxyphenyl)-2-oxoethyl]-3-{[(2S)-2-phenyl-2-piperidin-1-ylpropanoyl]oxy}-1-azoniabicyclo[2.2.2]octane bromide] | < 2 nM | 
CC1(C)CN(C(C)(C(=O)O[C@H]2C[N+]3(CCCOc4ccccc4)CCC2CC3)c2ccc(Cl)cc2)C1 (single isomer, unassigned) [Example 47] | < 2 nM | 
CC(C(=O)O[C@H]1C[N+]2(CCCc3ccccc3)CCC1CC2)(c1ccccc1)N1CCSCC1 (single isomer, unassigned) [Example 105] | 2 to 10 nM | 
CC(C(=O)O[C@H]1C[N+]2(CCCc3cccnc3)CCC1CC2)(c1ccccc1)N1CCSCC1 (single isomer, unassigned) [Example 106] | 2 to 10 nM | 
CC(C(=O)O[C@H]1C[N+]2(CC(=O)Nc3ccccc3)CCC1CC2)(c1ccccc1)N1CCCCCC1 (single isomer, unassigned) [Example 89] | < 2 nM | 
Cc1cnc(NC(=O)C[N+]23CCC(CC2)[C@@H](OC(=O)C(C)(c2ccccc2)N2CCCCCC2)C3)cn1 (single isomer, unassigned) [Example 91] | < 2 nM | 

— patent publication US20100113510A1 (priority 2006, published 2010)
